This passage reports remaining binding results from article PMC5862592, “CDK8/19 inhibition induces premature G1/S transition and ATR-dependent cell death in prostate cancer cells” (Oncotarget, 2018).

Each structure is given as a SMILES string. Read-outs that look alike come from different tables or passages of the source.

Common to all, as to experiment: biochemical
What all share (design): KINOMEscan active site-directed competition binding assay (DiscoveRx), 456 kinases, per cent of control at 300 nM
Common to all, as to details: read-out: Percent of Control (%)

One experiment concerns the target T1, TAK1 (Homo sapiens, UniProt O43318).
T1 construct: gene MAP3K7
In short, it runs like this:
(§1)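 Compounds at 300 nmol/L screened against 456 kinases by KINOMEscan, a competition binding assay measuring displacement at the kinase active site.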

The next experiment concerns the target T2, CDK4-cyclinD3 (Homo sapiens, UniProt P11802).
T2 construct: cyclinD3
A digest of the protocol: as §1

The next experiment concerns the target T3, JNK1 (Homo sapiens, UniProt P45983).
T3 construct: gene MAPK8
A digest of the protocol:
as §1

The next experiment deals with T4, PIP5K2C (Homo sapiens, UniProt Q8TBX8).
T4 construct: gene PIP4K2C
In short, it runs like this: as §1

The next experiment deals with T5, CDC2L1 (Homo sapiens, UniProt P21127).
T5 construct: gene CDK11B
In short, it runs like this:
as §1

Another experiment has as its target T6, YSK1 (Homo sapiens, UniProt O00506).
T6 construct: gene STK25
In short, it runs like this: as §1

The next experiment addresses TESK1 (Homo sapiens, UniProt Q15569). A digest of the protocol: as §1
The next experiment addresses T7, IKK-alpha (Homo sapiens, UniProt O15111).
T7 construct: gene CHUK
In short, it runs like this:
as §1

Another experiment addresses PRKCQ (Homo sapiens, UniProt Q04759). In short, it runs like this: as §1
The next experiment has as its target GSK3A (Homo sapiens, UniProt P49840). In short, it runs like this: as §1
The target in a further experiment is PIK3CA(C420R) (Homo sapiens, UniProt P42336, C420R). A digest of the protocol:
as §1

The target in experiment [1] is EGFR(L747-S752del, P753S) (Homo sapiens, UniProt P00533, DEL747-752/P753S). A digest of the protocol: as §1
The next experiment addresses DYRK2 (Homo sapiens, UniProt Q92630). In short, it runs like this:
as §1

The next experiment concerns the target RIOK1 (Homo sapiens, UniProt Q9BRS2). A digest of the protocol: as §1
Another experiment concerns the target CSF1R-autoinhibited (Homo sapiens, UniProt P07333). A digest of the protocol:
as §1

For another experiment, the target named is T8, ERK8 (Homo sapiens, UniProt Q8TD08).
T8 construct: gene MAPK15
A digest of the protocol: as §1

For experiment [2], the target named is T9, JAK1(JH2domain-pseudokinase) (Homo sapiens, UniProt P23458).
T9 construct: JH2domain-pseudokinase
In short, it runs like this: as §1

In a further experiment the target is RET (Homo sapiens, UniProt P07949). In short, it runs like this: as §1
The target in another experiment is CAMKK2 (Homo sapiens, UniProt Q96RR4). A digest of the protocol:
as §1

A further experiment has as its target T10, LZK (Homo sapiens, UniProt O43283).
T10 construct: gene MAP3K13
A digest of the protocol:
as §1

A further experiment deals with HIPK1 (Homo sapiens, UniProt Q86Z02). In short, it runs like this: as §1

T10 sequence (O43283 whole entry): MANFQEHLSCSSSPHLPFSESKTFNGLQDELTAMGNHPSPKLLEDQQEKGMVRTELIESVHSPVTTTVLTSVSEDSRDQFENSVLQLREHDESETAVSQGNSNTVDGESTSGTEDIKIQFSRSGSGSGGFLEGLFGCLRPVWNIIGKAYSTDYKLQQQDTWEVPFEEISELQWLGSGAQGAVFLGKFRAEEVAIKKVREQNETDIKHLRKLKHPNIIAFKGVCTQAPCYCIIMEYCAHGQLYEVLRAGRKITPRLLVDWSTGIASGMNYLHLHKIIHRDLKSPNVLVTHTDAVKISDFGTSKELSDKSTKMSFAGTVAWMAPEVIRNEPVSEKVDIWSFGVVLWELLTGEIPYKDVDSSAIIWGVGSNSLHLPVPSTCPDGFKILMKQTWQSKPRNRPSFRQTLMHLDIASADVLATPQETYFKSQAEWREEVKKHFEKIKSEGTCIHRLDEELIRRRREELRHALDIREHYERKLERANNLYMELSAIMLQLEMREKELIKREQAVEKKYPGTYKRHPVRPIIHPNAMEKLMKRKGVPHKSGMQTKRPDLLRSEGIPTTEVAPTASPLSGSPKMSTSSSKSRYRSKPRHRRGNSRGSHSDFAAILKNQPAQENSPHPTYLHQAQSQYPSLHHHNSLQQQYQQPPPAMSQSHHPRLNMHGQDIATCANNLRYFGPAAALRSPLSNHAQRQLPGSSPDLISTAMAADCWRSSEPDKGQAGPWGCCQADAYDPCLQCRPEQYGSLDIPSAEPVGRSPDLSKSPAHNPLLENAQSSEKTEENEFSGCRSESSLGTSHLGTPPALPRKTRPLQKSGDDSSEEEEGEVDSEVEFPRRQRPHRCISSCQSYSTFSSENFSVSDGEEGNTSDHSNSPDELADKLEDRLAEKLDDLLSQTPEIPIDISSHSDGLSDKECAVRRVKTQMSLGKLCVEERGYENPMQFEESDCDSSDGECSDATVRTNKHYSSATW
T1 sequence (O43318 whole entry): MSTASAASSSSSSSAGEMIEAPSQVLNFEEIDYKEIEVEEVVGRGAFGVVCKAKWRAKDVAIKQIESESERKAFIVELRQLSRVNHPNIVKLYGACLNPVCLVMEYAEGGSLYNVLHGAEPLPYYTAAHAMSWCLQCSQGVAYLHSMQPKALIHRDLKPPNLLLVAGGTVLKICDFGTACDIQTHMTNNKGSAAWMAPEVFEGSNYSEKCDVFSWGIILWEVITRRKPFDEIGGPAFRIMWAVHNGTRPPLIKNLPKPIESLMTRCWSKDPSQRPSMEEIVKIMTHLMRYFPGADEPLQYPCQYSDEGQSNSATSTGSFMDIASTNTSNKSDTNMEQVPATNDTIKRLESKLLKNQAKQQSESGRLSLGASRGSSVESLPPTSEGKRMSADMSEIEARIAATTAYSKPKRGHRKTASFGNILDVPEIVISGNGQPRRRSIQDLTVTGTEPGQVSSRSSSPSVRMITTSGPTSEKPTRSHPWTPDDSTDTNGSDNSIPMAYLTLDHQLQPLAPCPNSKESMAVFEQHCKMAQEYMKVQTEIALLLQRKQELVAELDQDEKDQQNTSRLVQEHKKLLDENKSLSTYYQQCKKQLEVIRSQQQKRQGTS
T9 sequence (P23458 whole entry): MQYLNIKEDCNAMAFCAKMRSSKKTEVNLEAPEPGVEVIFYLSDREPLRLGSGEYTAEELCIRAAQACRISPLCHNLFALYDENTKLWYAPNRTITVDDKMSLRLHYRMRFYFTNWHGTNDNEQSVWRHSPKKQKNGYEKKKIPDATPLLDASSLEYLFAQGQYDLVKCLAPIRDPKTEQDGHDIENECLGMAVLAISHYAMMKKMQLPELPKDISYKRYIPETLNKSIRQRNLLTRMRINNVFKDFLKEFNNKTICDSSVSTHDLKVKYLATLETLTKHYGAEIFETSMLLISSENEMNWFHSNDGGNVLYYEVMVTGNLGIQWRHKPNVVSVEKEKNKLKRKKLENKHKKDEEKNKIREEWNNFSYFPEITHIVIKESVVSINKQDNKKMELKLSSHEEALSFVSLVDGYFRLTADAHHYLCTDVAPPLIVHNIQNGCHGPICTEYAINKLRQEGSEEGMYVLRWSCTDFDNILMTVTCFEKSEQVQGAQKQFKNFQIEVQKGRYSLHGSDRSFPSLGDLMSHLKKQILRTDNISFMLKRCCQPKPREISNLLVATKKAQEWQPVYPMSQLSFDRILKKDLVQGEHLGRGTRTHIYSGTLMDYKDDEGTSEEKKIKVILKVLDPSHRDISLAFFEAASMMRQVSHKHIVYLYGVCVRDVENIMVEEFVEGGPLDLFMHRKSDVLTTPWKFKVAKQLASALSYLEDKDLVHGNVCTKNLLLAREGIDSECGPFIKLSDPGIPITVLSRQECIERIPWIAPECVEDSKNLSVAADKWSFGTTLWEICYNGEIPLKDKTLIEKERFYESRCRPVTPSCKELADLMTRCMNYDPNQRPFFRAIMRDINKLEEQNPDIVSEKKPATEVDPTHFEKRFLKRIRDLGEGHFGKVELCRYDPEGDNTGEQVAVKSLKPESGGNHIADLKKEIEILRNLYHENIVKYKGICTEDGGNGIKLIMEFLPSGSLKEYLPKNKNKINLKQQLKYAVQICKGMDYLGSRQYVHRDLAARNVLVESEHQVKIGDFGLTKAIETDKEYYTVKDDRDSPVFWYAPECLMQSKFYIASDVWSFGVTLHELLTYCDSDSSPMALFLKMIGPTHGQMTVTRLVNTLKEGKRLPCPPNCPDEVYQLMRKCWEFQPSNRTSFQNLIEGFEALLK
Chain of GSK3A (P49840 whole entry): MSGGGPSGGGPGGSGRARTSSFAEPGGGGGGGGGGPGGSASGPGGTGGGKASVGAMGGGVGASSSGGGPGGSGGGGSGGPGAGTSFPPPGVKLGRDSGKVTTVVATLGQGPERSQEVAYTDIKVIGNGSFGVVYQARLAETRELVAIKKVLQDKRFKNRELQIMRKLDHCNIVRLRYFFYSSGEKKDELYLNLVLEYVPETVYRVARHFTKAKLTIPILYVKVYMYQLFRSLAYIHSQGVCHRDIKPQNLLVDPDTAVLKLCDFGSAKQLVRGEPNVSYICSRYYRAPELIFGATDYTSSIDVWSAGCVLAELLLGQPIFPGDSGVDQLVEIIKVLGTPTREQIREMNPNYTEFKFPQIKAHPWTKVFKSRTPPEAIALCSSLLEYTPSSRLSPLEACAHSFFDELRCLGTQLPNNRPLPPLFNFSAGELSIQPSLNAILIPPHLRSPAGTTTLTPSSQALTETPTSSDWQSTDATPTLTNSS
Chain of DYRK2 (Q92630 whole entry): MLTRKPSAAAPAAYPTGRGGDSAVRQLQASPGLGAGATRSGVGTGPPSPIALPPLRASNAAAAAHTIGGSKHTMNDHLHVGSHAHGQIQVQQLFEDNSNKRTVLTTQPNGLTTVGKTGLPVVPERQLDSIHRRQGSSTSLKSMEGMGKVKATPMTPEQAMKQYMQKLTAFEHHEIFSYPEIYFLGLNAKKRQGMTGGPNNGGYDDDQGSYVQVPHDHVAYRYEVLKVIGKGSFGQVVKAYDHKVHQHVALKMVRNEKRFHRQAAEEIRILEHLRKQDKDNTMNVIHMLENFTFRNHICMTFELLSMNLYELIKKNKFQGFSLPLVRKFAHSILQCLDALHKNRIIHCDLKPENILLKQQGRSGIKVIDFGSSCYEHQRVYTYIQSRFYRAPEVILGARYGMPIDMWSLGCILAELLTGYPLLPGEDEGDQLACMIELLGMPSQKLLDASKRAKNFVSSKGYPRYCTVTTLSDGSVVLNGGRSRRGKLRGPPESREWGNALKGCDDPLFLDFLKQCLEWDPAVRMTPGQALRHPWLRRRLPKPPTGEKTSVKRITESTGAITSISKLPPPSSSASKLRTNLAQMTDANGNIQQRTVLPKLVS
Chain of EGFR(L747-S752del, P753S) (P00533 with tags, fused parts or gaps DEL747-752/P753S): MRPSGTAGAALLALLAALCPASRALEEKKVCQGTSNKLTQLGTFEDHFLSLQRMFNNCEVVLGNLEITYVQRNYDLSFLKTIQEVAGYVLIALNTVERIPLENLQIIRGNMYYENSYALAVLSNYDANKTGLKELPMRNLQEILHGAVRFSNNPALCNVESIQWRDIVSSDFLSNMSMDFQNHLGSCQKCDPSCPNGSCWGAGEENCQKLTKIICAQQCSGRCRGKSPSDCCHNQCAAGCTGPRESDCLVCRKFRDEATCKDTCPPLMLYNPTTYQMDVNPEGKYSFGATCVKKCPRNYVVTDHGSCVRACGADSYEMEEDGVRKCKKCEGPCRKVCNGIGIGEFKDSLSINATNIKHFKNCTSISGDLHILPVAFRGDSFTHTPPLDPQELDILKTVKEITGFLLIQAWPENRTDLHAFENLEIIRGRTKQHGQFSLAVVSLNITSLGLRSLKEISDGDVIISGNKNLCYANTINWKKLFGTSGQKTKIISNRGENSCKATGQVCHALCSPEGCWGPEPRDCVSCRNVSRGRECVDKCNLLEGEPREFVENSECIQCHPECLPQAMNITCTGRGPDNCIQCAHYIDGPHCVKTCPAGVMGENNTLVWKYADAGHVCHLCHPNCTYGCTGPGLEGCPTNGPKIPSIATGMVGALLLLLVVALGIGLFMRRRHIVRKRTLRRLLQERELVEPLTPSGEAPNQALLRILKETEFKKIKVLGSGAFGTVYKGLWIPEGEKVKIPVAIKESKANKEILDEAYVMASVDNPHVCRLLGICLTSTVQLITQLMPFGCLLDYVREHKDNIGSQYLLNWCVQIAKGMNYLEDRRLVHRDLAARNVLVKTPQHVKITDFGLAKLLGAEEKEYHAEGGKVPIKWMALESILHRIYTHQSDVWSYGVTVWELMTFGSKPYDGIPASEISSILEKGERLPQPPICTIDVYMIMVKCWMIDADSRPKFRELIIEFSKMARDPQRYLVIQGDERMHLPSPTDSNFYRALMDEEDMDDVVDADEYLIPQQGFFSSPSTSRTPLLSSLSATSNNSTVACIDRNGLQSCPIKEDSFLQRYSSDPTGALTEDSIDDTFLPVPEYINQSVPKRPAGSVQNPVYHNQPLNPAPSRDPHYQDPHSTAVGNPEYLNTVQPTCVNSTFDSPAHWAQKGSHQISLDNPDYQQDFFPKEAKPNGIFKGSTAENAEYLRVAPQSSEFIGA

In the case of `Cc1ncccc1Oc1sc(C(N)=O)c2c1-c1c(cnn1C)CC2` [T-474, 1-methyl-8-((2-methylpyridin-3-yl)oxy)-4,5-dihydro-1H-thieno[3,4-g]indazole-6-carboxamide], the remaining binding at 0.3 µM was 100% at TAK1; 98% at CDK4-cyclinD3; 87% on JNK1; 74% at PIP5K2C; 100% on CDC2L1; 94% on YSK1. For the same compound, the remaining binding at 0.3 µM at TESK1 was 100%; at IKK-alpha it was 100%; at PRKCQ it was 100%; on GSK3A, 70%; at PIK3CA(C420R) it was 95%; in experiment [1], 61%. The remaining binding at 0.3 µM on DYRK2 came to 100%; on RIOK1, 98%; on CSF1R-autoinhibited, 100%; on ERK8 it was 88%; in experiment [2] it was 100%; at RET it was 100%. Moreover, the remaining binding at 0.3 µM stood at 100% on CAMKK2, 100% on LZK and 81% at HIPK1.

As for `O=C(/C=C/c1cnccc1-c1ccc(F)cc1)Nc1ccc(CCc2nnco2)cc1` [T-418, (2E)-3-(4-(4-fluorophenyl)pyridin-3-yl)-N-(4-(2-(1,3,4-oxadiazol-2-yl)ethyl)phenyl)acrylamide], the remaining binding at 0.3 µM is 100% on TAK1 (sheet T-418); 95% at CDK4-cyclinD3 (sheet T-418); 90% on JNK1 (sheet T-418); 74% at PIP5K2C (sheet T-418); 92% at CDC2L1 (sheet T-418); 97% at YSK1 (sheet T-418). Also, the remaining binding at 0.3 µM was 99% on TESK1 (sheet T-418); 100% at IKK-alpha (sheet T-418); 83% on PRKCQ (sheet T-418); 64% on GSK3A (sheet T-418); 86% at PIK3CA(C420R) (sheet T-418); 87% in experiment [1] (sheet T-418). Moreover, the remaining binding at 0.3 µM at DYRK2 (sheet T-418) was 100%; at RIOK1 (sheet T-418), 97%; at CSF1R-autoinhibited (sheet T-418), 86%; at ERK8 (sheet T-418) it was 94%; in experiment [2] (sheet T-418), 100%; at RET (sheet T-418), 63%. Besides, the remaining binding at 0.3 µM on CAMKK2 (sheet T-418) is 100%; at LZK (sheet T-418), 96%; at HIPK1 (sheet T-418) it was 75%.
